Measured values published in US4360665A, “4"-N-(Substituted)-apramycin antibiotic derivatives and intermediates therefor” (Eli Lilly and Company, priority 1981, dated 1982).
In brackets after ≈: the same amount, converted by molar mass. Read-outs that look alike come from different tables or passages of the source.

Assays:
[1] = tested on: Streptococcus pneumoniae Park 1; test: MIC by standard agar dilution test; type: cell-based; conditions: PARK1, Table 1, read-out: Minimum Inhibitory Concentration
Excerpt: (§1) The antibacterial activity of the antibiotic compounds of this invention is illustrated by the following in vitro and in vivo test data obtained with representative compounds. In Tables I and II, the minimum inhibitory concentration (MIC) for representative compounds against a wide range of gram-positive and gram-negative bacteria are presented. The MIC values were obtained by the standard agar dilution test.

Proteus rettgeri PR2 = test: MIC by standard agar dilution test; type: cell-based; conditions: Providencia rettgeri, Table II, read-out: Minimum Inhibitory Concentration
Excerpt: as §1

Serratia marcescens SE2 = test: MIC by standard agar dilution test; type: cell-based; conditions: Table II, read-out: Minimum Inhibitory Concentration
Excerpt: as §1

[2] = tested on: Pseudomonas aeruginosa Ps9; test: MIC by standard agar dilution test; type: cell-based; conditions: Table II, read-out: Minimum Inhibitory Concentration
Excerpt: as §1

[3] = tested on: Pseudomonas aeruginosa Ps15; test: MIC by standard agar dilution test; type: cell-based; conditions: Table II, read-out: Minimum Inhibitory Concentration
Excerpt: as §1

[4] = tested on: Enterobacter aerogenes EB6; test: MIC by standard agar dilution test; type: cell-based; conditions: Klebsiella aerogenes; Table II; Enterobacter aerogenes EB6; agar dilution; read-out: Minimum Inhibitory Concentration
Excerpt: as §1

[5] = tested on: Pseudomonas aeruginosa X528; test: MIC by standard agar dilution test; type: cell-based
Excerpt: as §1

Enterobacter cloacae EB5 = test: MIC by standard agar dilution test; type: cell-based; conditions: Table 1, read-out: Minimum Inhibitory Concentration
Excerpt: as §1

Serratia marcescens X99 = test: MIC by standard agar dilution test; type: cell-based
Excerpt: as §1

[6] = tested on: Staphylococcus aureus X400; test: MIC by standard agar dilution test; type: cell-based; conditions: Table 1, read-out: Minimum Inhibitory Concentration
Excerpt: as §1

[7] = tested on: Klebsiella pneumoniae KAE; test: MIC by standard agar dilution test; type: cell-based; conditions: Table 1, read-out: Minimum Inhibitory Concentration
Excerpt: as §1

[8] = tested on: Enterobacter aerogenes X68; test: MIC by standard agar dilution test; type: cell-based; conditions: Klebsiella aerogenes, Table 1, read-out: Minimum Inhibitory Concentration
Excerpt: as §1

Serratia marcescens SE3 = test: MIC by standard agar dilution test; type: cell-based
Excerpt: as §1

[9] = tested on: Streptococcus pyogenes C203; test: MIC by standard agar dilution test; type: cell-based; conditions: Table 1, read-out: Minimum Inhibitory Concentration
Excerpt: as §1

[10] = tested on: Pseudomonas aeruginosa X239; test: MIC by standard agar dilution test; type: cell-based
Excerpt: as §1

[11] = tested on: Salmonella typhimurium 1335; test: MIC by standard agar dilution test; type: cell-based; conditions: Salmonella enterica, Table 1, read-out: Minimum Inhibitory Concentration
Excerpt: as §1

[12] = tested on: Enterobacter cloacae 265A; test: MIC by standard agar dilution test; type: cell-based; conditions: Table 1, read-out: Minimum Inhibitory Concentration
Excerpt: as §1

[13] = tested on: Staphylococcus aureus V41; test: MIC by standard agar dilution test; type: cell-based; conditions: Table 1, read-out: Minimum Inhibitory Concentration
Excerpt: as §1

Shigella sonnei N9 = test: MIC by standard agar dilution test; type: cell-based; conditions: Table 1, read-out: Minimum Inhibitory Concentration
Excerpt: as §1

Proteus rettgeri C24 = test: MIC by standard agar dilution test; type: cell-based; conditions: Providencia rettgeri, Table 1, read-out: Minimum Inhibitory Concentration
Excerpt: as §1

[14] = tested on: Pseudomonas aeruginosa SF-2; test: MIC by standard agar dilution test; type: cell-based; conditions: SF2, Table II, read-out: Minimum Inhibitory Concentration
Excerpt: as §1

[15] = tested on: Enterobacter cloacae EN453; test: MIC by standard agar dilution test; type: cell-based; conditions: Table II, read-out: Minimum Inhibitory Concentration
Excerpt: as §1

[16] = tested on: Staphylococcus aureus S13E; test: MIC by standard agar dilution test; type: cell-based; conditions: read-out: Minimum Inhibitory Concentration
Excerpt: as §1

Escherichia coli TEM = test: MIC by standard agar dilution test; type: cell-based; conditions: read-out: Minimum Inhibitory Concentration
Excerpt: as §1

[17] = tested on: Klebsiella pneumoniae KL2; test: MIC by standard agar dilution test; type: cell-based; conditions: Table II, read-out: Minimum Inhibitory Concentration
Excerpt: as §1

[18] = tested on: Pseudomonas aeruginosa Ps25; test: MIC by standard agar dilution test; type: cell-based; conditions: Table II, read-out: Minimum Inhibitory Concentration
Excerpt: as §1

[19] = tested on: Enterobacter aerogenes C32; test: MIC by standard agar dilution test; type: cell-based; conditions: Klebsiella aerogenes, Table 1, read-out: Minimum Inhibitory Concentration
Excerpt: as §1

[20] = tested on: Pseudomonas aeruginosa Ps18; test: MIC by standard agar dilution test; type: cell-based; conditions: Table 1; Pseudomonas aeruginosa Ps18; agar dilution; read-out: Minimum Inhibitory Concentration
Excerpt: as §1

[21] = tested on: Staphylococcus epidermidis EPI1; test: MIC by standard agar dilution test; type: cell-based; conditions: Table 1, read-out: Minimum Inhibitory Concentration
Excerpt: as §1

Escherichia coli N10 = test: MIC by standard agar dilution test; type: cell-based; conditions: Table 1, read-out: Minimum Inhibitory Concentration
Excerpt: as §1

Proteus rettgeri PR7 = test: MIC by standard agar dilution test; type: cell-based; conditions: Providencia rettgeri, Table 1, read-out: Minimum Inhibitory Concentration
Excerpt: as §1

[22] = tested on: Pseudomonas aeruginosa 4276; test: MIC by standard agar dilution test; type: cell-based; conditions: Table II, read-out: Minimum Inhibitory Concentration
Excerpt: as §1

[23] = tested on: Klebsiella pneumoniae X26; test: MIC by standard agar dilution test; type: cell-based; conditions: Table 1, read-out: Minimum Inhibitory Concentration
Excerpt: as §1

[24] = tested on: Haemophilus influenzae R252; test: MIC by standard agar dilution test; type: cell-based; conditions: Table 1; Haemophilus influenzae R252; agar dilution; read-out: Minimum Inhibitory Concentration
Excerpt: as §1

[25] = tested on: Pseudomonas aeruginosa PI23; test: MIC by standard agar dilution test; type: cell-based; conditions: Table II, read-out: Minimum Inhibitory Concentration
Excerpt: as §1

Escherichia coli EC14 = test: MIC by standard agar dilution test; type: cell-based; conditions: Table 1, read-out: Minimum Inhibitory Concentration
Excerpt: as §1

[26] = tested on: Streptococcus group D 9960; test: MIC by standard agar dilution test; type: cell-based; conditions: D9960, Table 1, read-out: Minimum Inhibitory Concentration
Excerpt: as §1

[27] = tested on: Staphylococcus aureus X1.1; test: MIC by standard agar dilution test; type: cell-based; conditions: Table 1, read-out: Minimum Inhibitory Concentration
Excerpt: as §1

Proteus inconstans PV25 = test: MIC by standard agar dilution test; type: cell-based; conditions: Providencia alcalifaciens, Table II, read-out: Minimum Inhibitory Concentration
Excerpt: as §1

[28] = tested on: Staphlyococcus aureus 3055; test: Subcutaneous therapy of experimental bacterial infection in mice; type: in vivo; conditions: Mus musculus, sc, subcutaneous doses at 1 and 5 hours postinfection, read-out: Effective Dose (ED50), dose to protect 50 percent of the test animals
Experimental: Table III illustrates the effective dose (ED50, effective dose to protect 50 percent of the test animals) for a representative compound of this invention against an experimental bacterial infection in mice. | *mg/kg × 2 subcutaneous doses at 1 and 5 hours postinfection The ED50 value was determined as described by W. E. Wick et al., Journal of Bacteriology, 81 [No. 2], 233-235 (1961).

CN[C@@H]1[C@@H](O[C@H]2O[C@H](CO)[C@@H](NC(C)=O)[C@H](O)[C@H]2O)O[C@H]2C[C@@H](N)[C@@H](O[C@H]3[C@H](O)[C@@H](O)[C@H](N)C[C@@H]3N)O[C@@H]2[C@@H]1O [Test Compound 1, 4"-N-Acetylapramycin]
MIC [1]: 128 µg/mL (≈ 220 µM) | MIC (Proteus rettgeri PR2): 32 µg/mL (≈ 55 µM) | MIC (Serratia marcescens SE2): 8 µg/mL (≈ 13.8 µM) | MIC [2]: 128 µg/mL (≈ 220 µM) | MIC [3]: 32 µg/mL (≈ 55 µM) | MIC [4]: 8 µg/mL (≈ 13.8 µM) | Minimum Inhibitory Concentration ([5]; Table 1): 64 µg/mL | MIC ([5]; Table II, read-out: Minimum Inhibitory Concentration): 64 µg/mL (≈ 110 µM) | MIC (Enterobacter cloacae EB5): 32 µg/mL (≈ 55 µM) | MIC (Serratia marcescens X99; X99, Table 1, read-out: Minimum Inhibitory Concentration): 16 µg/mL (≈ 27.5 µM) | MIC (Serratia marcescens X99; X99, Table II, read-out: Minimum Inhibitory Concentration): 4 µg/mL (≈ 6.88 µM) | MIC [6]: 128 µg/mL (≈ 220 µM) | MIC [7]: 16 µg/mL (≈ 27.5 µM) | MIC [8]: 16 µg/mL (≈ 27.5 µM) | MIC (Serratia marcescens SE3; SE3, Table 1, read-out: Minimum Inhibitory Concentration): 32 µg/mL (≈ 55 µM) | MIC (Serratia marcescens SE3; SE3, Table II, read-out: Minimum Inhibitory Concentration): 8 µg/mL (≈ 13.8 µM) | MIC [9]: > 128 µg/mL | MIC ([10]; X239, Table 1, read-out: Minimum Inhibitory Concentration): 64 µg/mL (≈ 110 µM) | MIC ([10]; X239, Table II, read-out: Minimum Inhibitory Concentration): 32 µg/mL (≈ 55 µM) | MIC [11]: 32 µg/mL (≈ 55 µM) | MIC [12]: 32 µg/mL (≈ 55 µM) | MIC [13]: 64 µg/mL (≈ 110 µM) | MIC (Shigella sonnei N9): 32 µg/mL (≈ 55 µM) | MIC (Proteus rettgeri C24): 32 µg/mL (≈ 55 µM) | MIC [14]: 64 µg/mL (≈ 110 µM) | MIC [15]: 8 µg/mL (≈ 13.8 µM) | MIC [16]: 64 µg/mL (≈ 110 µM) | MIC (Escherichia coli TEM): 16 µg/mL (≈ 27.5 µM) | MIC [17]: 8 µg/mL (≈ 13.8 µM) | MIC [18]: 32 µg/mL (≈ 55 µM) | MIC [19]: 16 µg/mL (≈ 27.5 µM) | MIC [20]: 16 µg/mL (≈ 27.5 µM) | MIC [21]: 32 µg/mL (≈ 55 µM) | MIC (Escherichia coli N10): 32 µg/mL (≈ 55 µM) | MIC (Proteus rettgeri PR7): 32 µg/mL (≈ 55 µM) | MIC [22]: 32 µg/mL (≈ 55 µM) | MIC [23]: 16 µg/mL (≈ 27.5 µM) | MIC [24]: 16 µg/mL (≈ 27.5 µM) | MIC [25]: > 128 µg/mL | MIC (Escherichia coli EC14): 16 µg/mL (≈ 27.5 µM) | MIC [26]: > 128 µg/mL | MIC [27]: 32 µg/mL (≈ 55 µM) | MIC (Proteus inconstans PV25): 8 µg/mL (≈ 13.8 µM) | ED50 [28]: 9.4 mg/kg
